Assay results published in patent US8465960B2 (priority 2007, dated 2013).

Assays:
[1] = target: influenza B virus NA with Ile222Thr mutation (UniProt P03474, I221T, species not given)
[2] = target: influenza B virus NA with Ser250Gly mutation (Influenza B virus, UniProt P27907, S248G); assay type: biochemical
[3] = tested on: influenza B virus NA with Gly402Ser mutation; assay type: biochemical
[4] = target: influenza B virus NA with Asp198Asn mutation (Influenza B virus, UniProt P27907, D196N)

CCOC(=O)C1=C[C@@H](OC(CC)CC)[C@H](NC(C)=O)[C@@H](N)C1 [oseltamivir]
reduction in sensitivity compared with median IC50 of type B viruses [1]: 6-7 fold | effect of mutation on sensitivity [2]: did not reduce sensitivity | increase of IC50 of posttreatment isolate compared to virus isolated before treatment [3]: 3.9 fold | reduction in drug sensitivity compared with median IC50 of type B viruses [4]: 3-4 fold
